According to the NIST ThermoML archive (doi:10.1021/je060271a):
± gives the expanded uncertainty stated by the source.

Details: 343.15 K, Liquid, Vibrating tube method

CCCCCCC(=O)OCC(COC(=O)CCCCCC)(COC(=O)CCCCCC)COC(=O)CCCCCC [pentaerythritol tetraheptanoate]
Details	mass density [kg/m3]
7850.3 kPa	946.4 ± 1.2
7873.8 kPa	946.5 ± 1.2
7893.3 kPa	946.5 ± 1.2
7913.5 kPa	946.6 ± 1.2
7937 kPa	946.6 ± 1.2
7957 kPa	946.6 ± 1.2
7977.2 kPa	946.6 ± 1.2
8001.2 kPa	946.6 ± 1.2
8021.7 kPa	946.5 ± 1.2
8042.2 kPa	946.6 ± 1.2
8067.3 kPa	946.5 ± 1.2
8088 kPa	946.6 ± 1.2
8109.4 kPa	946.6 ± 1.2
8130.2 kPa	946.6 ± 1.2
8151.8 kPa	946.6 ± 1.2
8177.7 kPa	946.8 ± 1.2
8199.3 kPa	946.8 ± 1.2
8220.8 kPa	946.7 ± 1.2
8246.2 kPa	946.7 ± 1.2
8268.1 kPa	946.7 ± 1.2
8290 kPa	946.7 ± 1.2
8311.6 kPa	946.9 ± 1.2
8338.1 kPa	946.7 ± 1.2
8361.6 kPa	946.7 ± 1.2
8384.3 kPa	946.8 ± 1.2
8406.7 kPa	946.8 ± 1.2
8433.8 kPa	946.9 ± 1.2
8456.2 kPa	946.9 ± 1.2
8479.4 kPa	946.9 ± 1.2
8502.3 kPa	946.8 ± 1.2
8530.3 kPa	946.9 ± 1.2
8553.5 kPa	946.9 ± 1.2
8577.2 kPa	946.9 ± 1.2
8605.4 kPa	947 ± 1.2
8629.1 kPa	947 ± 1.2
8653.2 kPa	947 ± 1.2
8683.2 kPa	947 ± 1.2
8702.1 kPa	947.2 ± 1.2
8731.5 kPa	947.1 ± 1.2
8755.6 kPa	947.1 ± 1.2
8780.3 kPa	947.2 ± 1.2
8809.9 kPa	947.1 ± 1.2
8834.4 kPa	947.2 ± 1.2
8864.2 kPa	947.3 ± 1.2
8889.4 kPa	947.1 ± 1.2
8914.2 kPa	947.2 ± 1.2
8939.2 kPa	947.2 ± 1.2
8970.1 kPa	947.3 ± 1.2
8995.6 kPa	947.2 ± 1.2
9022.5 kPa	947.3 ± 1.2
9053.7 kPa	947.3 ± 1.2
9079.4 kPa	947.3 ± 1.2
9110.6 kPa	947.5 ± 1.2
9136.4 kPa	947.5 ± 1.2
9163.7 kPa	947.4 ± 1.2
9195.6 kPa	947.5 ± 1.2
9222.6 kPa	947.5 ± 1.2
9249.7 kPa	947.4 ± 1.2
9282.3 kPa	947.4 ± 1.2
9309.7 kPa	947.4 ± 1.2
9337.9 kPa	947.6 ± 1.2
9371.4 kPa	947.5 ± 1.2
9400.1 kPa	947.5 ± 1.2
9428.6 kPa	947.6 ± 1.2
9456.7 kPa	947.6 ± 1.2
9491 kPa	947.7 ± 1.2
9519.9 kPa	947.6 ± 1.2
9549 kPa	947.8 ± 1.2
9584 kPa	947.6 ± 1.2
9613.7 kPa	947.9 ± 1.2
9649.3 kPa	947.7 ± 1.2
9679.5 kPa	947.8 ± 1.2
9709.5 kPa	947.9 ± 1.2
9739.8 kPa	947.8 ± 1.2
9777.3 kPa	947.7 ± 1.2
9809 kPa	947.8 ± 1.2
9840.2 kPa	947.9 ± 1.2
9878.1 kPa	948 ± 1.2
9910.3 kPa	947.8 ± 1.2
9943.2 kPa	947.8 ± 1.2
9983.2 kPa	948 ± 1.2
10018 kPa	947.9 ± 1.2
10052 kPa	947.9 ± 1.2
10080 kPa	948.1 ± 1.2
10104 kPa	948.1 ± 1.2
10124 kPa	948 ± 1.2
10144 kPa	948 ± 1.2
10169 kPa	948.1 ± 1.2
10189 kPa	948.2 ± 1.2
10207 kPa	948.2 ± 1.2
10224 kPa	948.1 ± 1.2
10244 kPa	948.2 ± 1.2
10261 kPa	948.2 ± 1.2
10281 kPa	948.2 ± 1.2
10298 kPa	948.3 ± 1.2
10315 kPa	948.2 ± 1.2
10335 kPa	948.2 ± 1.2
10352 kPa	948.3 ± 1.2
10370 kPa	948.3 ± 1.2
10390 kPa	948.3 ± 1.2
10408 kPa	948.2 ± 1.2
10425 kPa	948.3 ± 1.2
10445 kPa	948.3 ± 1.2
10463 kPa	948.3 ± 1.2
10481 kPa	948.2 ± 1.2
10502 kPa	948.4 ± 1.2
10520 kPa	948.3 ± 1.2
10537 kPa	948.3 ± 1.2
10558 kPa	948.4 ± 1.2
10576 kPa	948.3 ± 1.2
10594 kPa	948.4 ± 1.2
10613 kPa	948.5 ± 1.2
10635 kPa	948.4 ± 1.2
10655 kPa	948.5 ± 1.2
10673 kPa	948.4 ± 1.2
10692 kPa	948.5 ± 1.2
10710 kPa	948.5 ± 1.2
10732 kPa	948.5 ± 1.2
10750 kPa	948.5 ± 1.2
10769 kPa	948.6 ± 1.2
10791 kPa	948.6 ± 1.2
10810 kPa	948.6 ± 1.2
10832 kPa	948.8 ± 1.2
10851 kPa	948.6 ± 1.2
10870 kPa	948.6 ± 1.2
10893 kPa	948.6 ± 1.2
10909 kPa	948.6 ± 1.2
10932 kPa	948.7 ± 1.2
10951 kPa	948.6 ± 1.2
10975 kPa	948.7 ± 1.2
10994 kPa	948.7 ± 1.2
11014 kPa	948.7 ± 1.2
11033 kPa	948.8 ± 1.2
11056 kPa	948.7 ± 1.2
11076 kPa	948.8 ± 1.2
11096 kPa	948.8 ± 1.2
11120 kPa	948.9 ± 1.2
11140 kPa	948.8 ± 1.2
11160 kPa	948.7 ± 1.2
11184 kPa	948.8 ± 1.2
11204 kPa	948.8 ± 1.2
11224 kPa	948.8 ± 1.2
11245 kPa	948.8 ± 1.2
11269 kPa	948.8 ± 1.2
11289 kPa	948.9 ± 1.2
11310 kPa	949 ± 1.2
11335 kPa	948.8 ± 1.2
11356 kPa	948.9 ± 1.2
11380 kPa	948.8 ± 1.2
11401 kPa	949.1 ± 1.2
11422 kPa	948.9 ± 1.2
11447 kPa	949 ± 1.2
11469 kPa	949.1 ± 1.2
11490 kPa	949 ± 1.2
11511 kPa	948.9 ± 1.2
11537 kPa	949.2 ± 1.2
11558 kPa	949.1 ± 1.2
11584 kPa	949.2 ± 1.2
11606 kPa	949.1 ± 1.2
11627 kPa	949.2 ± 1.2
11649 kPa	949 ± 1.2
11675 kPa	949.3 ± 1.2
11697 kPa	949.1 ± 1.2
11719 kPa	949.2 ± 1.2
11746 kPa	949.3 ± 1.2
11768 kPa	949.2 ± 1.2
11794 kPa	949.3 ± 1.2
11817 kPa	949.3 ± 1.2
11840 kPa	949.2 ± 1.2
11862 kPa	949.3 ± 1.2
11889 kPa	949.4 ± 1.2
11911 kPa	949.2 ± 1.2
11939 kPa	949.3 ± 1.2
11962 kPa	949.5 ± 1.2
11985 kPa	949.4 ± 1.2
12012 kPa	949.4 ± 1.2
12036 kPa	949.4 ± 1.2
12060 kPa	949.5 ± 1.2
12088 kPa	949.5 ± 1.2
12112 kPa	949.3 ± 1.2
12136 kPa	949.5 ± 1.2
12159 kPa	949.5 ± 1.2
12188 kPa	949.5 ± 1.2
12212 kPa	949.6 ± 1.2
12241 kPa	949.5 ± 1.2
12265 kPa	949.6 ± 1.2
12290 kPa	949.5 ± 1.2
12314 kPa	949.6 ± 1.2
12344 kPa	949.5 ± 1.2
12368 kPa	949.6 ± 1.2
12394 kPa	949.7 ± 1.2
12424 kPa	949.8 ± 1.2
12449 kPa	949.7 ± 1.2
12474 kPa	949.9 ± 1.2
12504 kPa	949.7 ± 1.2
12530 kPa	949.7 ± 1.2
12555 kPa	949.8 ± 1.2
12581 kPa	949.7 ± 1.2
12612 kPa	949.9 ± 1.2
12638 kPa	949.9 ± 1.2
12664 kPa	949.8 ± 1.2
12695 kPa	949.8 ± 1.2
12722 kPa	950 ± 1.2
12750 kPa	949.9 ± 1.2
12776 kPa	950 ± 1.2
12803 kPa	949.8 ± 1.2
12834 kPa	950.1 ± 1.2
12861 kPa	950.1 ± 1.2
12894 kPa	950 ± 1.2
12921 kPa	950.1 ± 1.2
12948 kPa	950 ± 1.2
12975 kPa	950 ± 1.2
13007 kPa	950.1 ± 1.2
13035 kPa	950.2 ± 1.2
13069 kPa	950.1 ± 1.2
13098 kPa	950.1 ± 1.2
13127 kPa	950.2 ± 1.2
13155 kPa	950.2 ± 1.2
13189 kPa	950.3 ± 1.2
13217 kPa	950.3 ± 1.2
13246 kPa	950.3 ± 1.2
13275 kPa	950.3 ± 1.2
13311 kPa	950.4 ± 1.2
